Measurements taken from EP0970046B1, “N-HYDROXY-2-(ALKYL, ARYL, OR HETEROARYL SULFANYL, SULFINYL OR SULFONYL)-3-SUBSTITUTED ALKYL, ARYL OR HETEROARYLAMIDES AS MATRIX METALLOPROTEINASE INHIBITORS” (Wyeth Holdings Corporation, priority 1997, dated 1998).

Target: T1, TACE (Homo sapiens, UniProt P78536)
T1 construct: purchased Immunex
Test: Procedure for Measuring TACE Inhibition
Assay type: biochemical
Conditions: 1 µM; Examples 110-168
Protocol: Using 96-well black microtiter plates, each well receives a solution composed of 10 µL TACE (Immunex, final concentration 1µg/mL), 70µL Tris buffer, pH 7.4 containing 10% glycerol (final concentration 10 mM), and 10 µL of test compound solution in DMSO (final concentration 1µM, DMSO concentration <1%) and incubated for 10 minutes at room temperature. The reaction is initiated by addition of a fluorescent peptidyl substrate (final concentration 100 µM) to each well and then shaking on a shaker for 5 sec. The reaction is read (excitation 340 nm, emission 420 nm) for 10 min. and the increase in fluorescence over time is plotted as a linear line. The slope of the line is calculated and represents the reaction rate. The linearity of the reaction rate is confirmed (r^2 >0.85). The mean (x±sem) of the control rate is calculated and compared for statistical significance (p<0.05) with drug-treated rates using Dunnett's multiple comparison test.

T1 sequence (P78536 215-824): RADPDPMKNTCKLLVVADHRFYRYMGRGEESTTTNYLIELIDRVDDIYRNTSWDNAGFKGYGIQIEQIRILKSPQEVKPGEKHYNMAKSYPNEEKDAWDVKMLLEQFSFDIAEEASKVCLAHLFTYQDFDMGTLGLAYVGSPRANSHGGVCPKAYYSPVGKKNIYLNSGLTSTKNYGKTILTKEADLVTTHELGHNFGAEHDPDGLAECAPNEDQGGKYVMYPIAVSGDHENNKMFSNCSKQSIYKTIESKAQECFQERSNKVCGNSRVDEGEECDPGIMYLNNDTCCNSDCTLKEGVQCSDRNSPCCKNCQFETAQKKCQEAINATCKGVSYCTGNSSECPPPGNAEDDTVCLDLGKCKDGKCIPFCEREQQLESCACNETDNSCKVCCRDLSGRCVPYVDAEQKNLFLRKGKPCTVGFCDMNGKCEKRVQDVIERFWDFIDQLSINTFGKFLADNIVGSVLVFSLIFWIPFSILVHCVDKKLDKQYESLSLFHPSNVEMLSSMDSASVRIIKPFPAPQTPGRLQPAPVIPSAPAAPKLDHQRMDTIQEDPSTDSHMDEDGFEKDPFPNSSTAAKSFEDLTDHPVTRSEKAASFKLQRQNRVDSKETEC

| Compound | TACE % inhibition at 1 µM |
| --- | --- |
| (1-Hydroxycarbamoyl-propane-1-sulfonyl)-acetic acid hydroxyamide [Example 120] | 19.9% |

Same assay, conditions: 1 µM; Examples 169-240

| Compound | TACE % inhibition at 1 µM |
| --- | --- |
| 3-(1-Hydroxycarbamoyl-heptylsulfinyl)-benzoicacid hydroxyamide [Example 188] | 16.2% |
| 3-(1-Hydroxycarbamoyl-heptylsulfanyl)-benzoic acid hydroxyamide [Example 184] | 24.8% |
| CCCCCCC(Sc1ccc(OCCN2CCNCC2)cc1)C(=O)NO (stereo not shown) [Example 201, 2-[4-(2-Piperazine-1-yl-ethoxy)-benzenesulfanyl]-octanoic acid hydroxyamide] | 50.9% |
| CCCCCCC(Sc1ccc(OCCCC)cc1)C(=O)NO (stereo not shown) [Example 200, 2-(4-Butoxy-benzenesulfanyl)-octanoic acid hydroxyamide] | 37.9% |
| Ethanesulfonic acid 4(1-hydroxycarbamoyl-heptylsulfanyl)-hydroxyamide [Example 234] | 18.4% |
| 2,5-Dichloro-thiophene-3-sulfonic acid 4-(1-hydroxycarbamoyl-heptylsulfinyl)-hydroxyamide [Example 236] | 35% |

Same assay, conditions: Examples 169-240; read-out: TACE IC50

| Compound | IC50 |
| --- | --- |
| CCCCCCC(C(=O)NO)[S+]([O-])c1ccc(OC2CCN(C)C2)cc1 (stereo not shown) [Example 215, 2-[4-(1-Methyl-pyrrolidin-3-yloxy)-benzenesulfinyl]-octanoic acid hydroxyamide] | 895 nM |
| CCCCCCC(C(=O)NO)[S+]([O-])c1ccc(-c2ccc(Cl)s2)cc1 (stereo not shown) [Example 222, 2-[4-(5-Chloro-thiophen-2-yl)-benzenesulfinyl]-octanoic acid hydroxyamide] | 212 nM |
| CCCCCCC(Sc1ccc(NCCCN2CCOCC2)cc1)C(=O)NO (stereo not shown) [Example 225, 2-[4-(3-morpholin-4-yl-propylamino)-phenylsulfanyl]-octanoic acid hydroxyamide] | 96.6 nM |
| CCCCCCC(C(=O)NO)[S+]([O-])c1ccc(-c2ccc(Cl)cc2)cc1 (stereo not shown) [Example 221, 2-(4'-Chloro-biphenyl-4-sulfinyl)-octanoic acid hydroxyamide] | 146 nM |
| CCCCCCC(C(=O)NO)S(=O)(=O)c1ccc(-c2ccc(Cl)s2)cc1 (stereo not shown) [Example 224, 2-[4-(5-Chloro-thiophen-2-yl)-benzenesulfonyl]-octanoic acid hydroxyamide] | 404 nM |
| CCCCCCC(C(=O)NO)S(=O)(=O)c1ccc(OC2CCN(C)C2)cc1 (stereo not shown) [Example 218, 2-[4-(1-Methyl-pyrrolidin-3-yloxy)-benzenesulfonyl]-octanoic acid hydroxyamide] | 380 nM |

Same assay, conditions: read-out: TACE % inhibition at 1 µM; 1 µM; Examples 169-240

| Compound | inhibition at 1 µM |
| --- | --- |
| CCCCCCC(C(=O)NO)[S+]([O-])c1ccc(OC2CCN(C)C2)cc1 (stereo not shown) [Example 215, 2-[4-(1-Methyl-pyrrolidin-3-yloxy)-benzenesulfinyl]-octanoic acid hydroxyamide] | 60.1% |
| CCCCCCC(C(=O)NO)[S+]([O-])c1ccc(OCCCc2ccccn2)cc1 (stereo not shown) [Example 207, 2-[4-(3-Pyridin-2-yl-propoxy)-benzenesulfinyl]-octanoic acid hydroxyamide] | -6.3% |
| CCCCCCC(C(=O)NO)[S+]([O-])c1ccc(OCc2ccccc2)cc1 (stereo not shown) [Example 204, 2-(4-Benzyloxy-phenylsulfinyl)-octanoic acid hydroxyamide] | 7.75% |
| CCCCCCC(C(=O)NO)[S+]([O-])c1ccc(-c2ccc(Cl)s2)cc1 (stereo not shown) [Example 222, 2-[4-(5-Chloro-thiophen-2-yl)-benzenesulfinyl]-octanoic acid hydroxyamide] | 89.3% |
| CCCCCCC(C(=O)NO)S(=O)(=O)c1ccc(OCCCc2ccccn2)cc1 (stereo not shown) [Example 211, 2-[4-(3-Pyridin-2-yl-propoxy)-benzenesulfonyl]-octanoic acid hydroxyamide] | 20.7% |
| CCCCCCC(C(=O)NO)S(=O)(=O)c1ccc(OC(CC)CC)cc1 (stereo not shown) [Example 219, 2-[4-(1-Ethyl-propoxy)-benzenesulfonyl]-octanoic acid hydroxyamide] | 7.3% |
| CCCCCCC(C(=O)NO)S(=O)(=O)c1ccc(OCc2ccccc2)cc1 (stereo not shown) [Example 208, 2-(4-Benzyloxy-phenylsulfonyl)-octanoic acid hydroxyamide] | 67.7% |
| CCCCCCC(Sc1ccc(NCCCN2CCOCC2)cc1)C(=O)NO (stereo not shown) [Example 225, 2-[4-(3-morpholin-4-yl-propylamino)-phenylsulfanyl]-octanoic acid hydroxyamide] | 114% |
| CCCCCCC(C(=O)NO)[S+]([O-])c1ccc(-c2ccc(Cl)cc2)cc1 (stereo not shown) [Example 221, 2-(4'-Chloro-biphenyl-4-sulfinyl)-octanoic acid hydroxyamide] | 98.9% |
| CCCCCCC(C(=O)NO)S(=O)(=O)c1ccc(OCCCC)cc1 (stereo not shown) [Example 209, 2-(4-Butoxy-benzenesulfonyl)-octanoic acid hydroxyamide] | 31.2% |
| CCCCCCC(Sc1ccc(OCCCCCO)cc1)C(=O)NO (stereo not shown) [Example 202, 2-[4-(5-Hydroxy-pentyloxy)-phenylsulfanyl]-octanoic acid hydroxyamide] | 10.6% |
| CCCCCCC(C(=O)NO)S(=O)(=O)c1ccc(-c2ccc(Cl)s2)cc1 (stereo not shown) [Example 224, 2-[4-(5-Chloro-thiophen-2-yl)-benzenesulfonyl]-octanoic acid hydroxyamide] | 75% |
| CCCCCCC(C(=O)NO)[S+]([O-])c1ccc(OCCCC)cc1 (stereo not shown) [Example 205, 2-(4-Butoxy-benzenesulfinyl)-octanoic acid hydroxyamide] | 84% |
| CCCCCCC(C(=O)NO)S(=O)(=O)c1ccc(OC2CCN(C)C2)cc1 (stereo not shown) [Example 218, 2-[4-(1-Methyl-pyrrolidin-3-yloxy)-benzenesulfonyl]-octanoic acid hydroxyamide] | 68.7% |

Same assay, conditions: read-out: TACE % inhibition at 1 micromolar

| Compound | inhibition at 1 µM |
| --- | --- |
| COc1ccc(S(=O)(=O)C(Cc2ccccc2)C(=O)NO)cc1 (stereo not shown) [Example 9, N-Hydroxy-2-(4-methoxy-benzenesulfonyl)-3-phenyl-propionamide] | 20.3% |
| CCCCOc1ccc(S(=O)(=O)C2(C(=O)NO)CCN(Cc3ccc(F)cc3)CC2)cc1 [Example 100, 1-(4-Fluoro-benzyl)-4-(4-butoxy-benzenesulfonyl)-piperidine-4-carboxylic acid hydroxyamide] | 39.5% |
| CCN(CC)CCOc1ccc(CC(C)(C(=O)NO)S(=O)(=O)c2ccc(OC)cc2)cc1 (stereo not shown) [Example 21, N-Hydroxy-2-(4-methoxy-benzenesulfonyl)-2-methyl-3-[4-(2-N,N-diethylamino-ethoxy)-phenyl]-propionamide] | 39% |
| COc1ccc(S(=O)(=O)C(C)(Cc2cccnc2)C(=O)NO)cc1 (stereo not shown) [Example 61, N-hydroxy-2-(4-methoxy-benzenesulfonyl)-2-methyl-3-pyridin-3-yl-propionamide] | 17.2% |
| C=CCC(CC=C)(C(=O)NO)S(=O)(=O)c1ccc(OC)cc1 [Example 58, 2-allyl-2-(4-methoxy-benzenesulfonyl)-pent-4-enoic acid hydroxyamide] | 7.7% |
| COc1ccc(S(=O)(=O)C2(C(=O)NO)CCN(C)CC2)cc1 [Example 97, 1-Methyl-4-(4-methoxy-benzenesulfonyl)-piperidine-4-carboxylic acid hydroxyamide] | 20.2% |
| COc1ccc([S+]([O-])C(C(=O)NO)c2ccccc2)cc1 (stereo not shown) [Example 8, N-Hydroxy-2-(4-methoxy-benzenesulfinyl)-2-phenyl-acetamide] | 47% |
| CCN1CCC(C(=O)NO)(S(=O)(=O)c2ccc(OC)cc2)CC1 [Example 95, 1-Ethyl-4-(4-methoxy-benzenesulfonyl)-piperidine-4-carboxylic acid hydroxyamide] | 25.4% |
| COc1ccc(CS(=O)(=O)C(C)(Cc2ccccc2)C(=O)NO)cc1 (stereo not shown) [Example 41, N-Hydroxy-2-(4-methoxy-phenylmethanesulfonyl)-2-methyl-3-phenyl propionic acid hydroxamide] | 15.5% |
| COc1ccc(S(=O)(=O)C(C)(Cc2ccc(OCCN(C(C)C)C(C)C)cc2)C(=O)NO)cc1 (stereo not shown) [Example 20, N-Hydroxy-2-(4-methoxy-benzenesulfonyl)-2-methyl-3-[4-(2-N,N-diisopropylamino-ethoxy)-phenyl]-propionamide] | 31% |

Same assay, conditions: read-out: TACE IC 50

| Compound | IC50 |
| --- | --- |
| COc1ccc(S(=O)(=O)C(Cc2ccc3ccccc3c2)C(=O)NO)cc1 (stereo not shown) [Example 40, N-Hydroxy-2-(4-methoxy-benzenesulfonyl)-3-naphthalen-2-yl-propionamide] | 160 nM |
| CCCCCCCCC(Cc1cccnc1)(C(=O)NO)S(=O)(=O)c1ccc(OC)cc1 (stereo not shown) [Example 62, 2-(4-Methoxy-benzenesulfonyl)-2-pyridin-3-ylmethyl-decanoic acid hydroxyamide] | 669 nM |
| COc1ccc(CN2CCC(C(=O)NO)(S(=O)(=O)c3ccc(OC)cc3)CC2)cc1 [Example 101, 4-(4-methoxy-benzenesulfonyl)-1-(4-methoxy-benzyl)-piperidine-4-carboxylic acid hydroxyamide] | 197 nM |

Target: MMP 13 (Homo sapiens, UniProt P45452)
Test: MMP 13 inhibition (HTS; method not described)
Assay type: biochemical
Conditions: 0.2 µM, HTS

| Compound | MMP 13 % inhibition at 0.2 µM (HTS) |
| --- | --- |
| CCC(C(=O)NO)S(=O)(=O)C(C)C(=O)NO (stereo not shown) [Example 124, (1-Hydroxycarbamoyl-propane-1-sulfonyl)-propionic acid hydroxyamide] | 0% |

Same assay, conditions: read-out: MMP 13 % inhibition (HTS); HTS

| Compound | inhibition |
| --- | --- |
| CCCCCCC(C(=O)NO)S(=O)(=O)c1cccc2cccnc12 (stereo not shown) [Example 196, 2-(Quinoline-8-sulfonyl)-octanoic acid hydroxyamide] | 11% |

Same assay, conditions: read-out: MMP 13 % inhibition at 36 nM (HTS); 36 nM, HTS

| Compound | inhibition at 0.036 µM |
| --- | --- |
| CCCCCCC(C(=O)NO)S(=O)(=O)c1cccc2cccnc12 (stereo not shown) [Example 196, 2-(Quinoline-8-sulfonyl)-octanoic acid hydroxyamide] | -18% |
| CCCCCCC(C(=O)NO)S(=O)(=O)c1nccs1 (stereo not shown) [Example 195, 2-(Thiazol-2-ylsulfonyl)-octanoic acid hydroxyamide] | -9% |
| CCCCCCC(C(=O)NO)[S+]([O-])c1ccccn1 (stereo not shown) [Example 178, 2-(2-Pyridine-2-sulfinyl)-octanoic acid hydroxyamide] | -10% |

Same assay, conditions: read-out: MMP 13 % inhibition at 0.2 µM (HTS); 0.2 µM, HTS

| Compound | inhibition at 0.2 µM |
| --- | --- |
| CCCCCCC(C(=O)NO)S(=O)(=O)c1cccc(OC)c1 (stereo not shown) [Example 164, 2-(3-Methoxybenzenesulfonyl)-octanoic acid hydroxyamide] | 74% |
| CCCCCCC(Sc1ccc(OC)c(OC)c1)C(=O)NO (stereo not shown) [Example 165, 2-(3,4-Dimethoxybenzenesulfanyl)-octanoic acid hydroxyamide] | 71% |
| CSc1ccc(SC(COCc2ccccc2)C(=O)NO)cc1 (stereo not shown) [Example 146, 3-benzyloxy-N-hydroxy-2-(4-methanesulfanyl-benzenesulfanyl)-propionamide] | 68% |

Same assay, conditions: read-out: MMP 13 % inhibition at 3.6 mM (HTS)

| Compound | inhibition at 3600 µM |
| --- | --- |
| CCCCCCC(C(=O)NO)[S+]([O-])c1ccccn1 (stereo not shown) [Example 178, 2-(2-Pyridine-2-sulfinyl)-octanoic acid hydroxyamide] | 39% |
